Source: patent US7939526B2, “Sulfone substituted imidazo ring ethers” (3M Innovative Properties Company, priority 2003, dated 2011)

melting point: 195 to 197 °C
SMILES: COCc1nc2c(N)nc3c(c2n1CC(C)(C)OCCS(C)(=O)=O)CCCC3 [Example 39, 2-(Methoxymethyl)-1-{2-methyl-2-[2-(methylsulfonyl)ethoxy]propyl}-6,7,8,9-tetrahydro-1H-imidazo[4,5-c]quinolin-4-amine]
